Measured values: the NIST ThermoML archive (doi:10.1016/j.jct.2016.04.018)
± gives the expanded uncertainty stated by the source.

Settings: 298.15 K; 101.3 kPa; Crystal; flotation method

mass density: 1489.7 ± 2.5 kg/m3
SMILES: O=[N+]([O-])c1ccc(O)c2ncccc12 [5-nitro-8-quinolinol]
